Results reported in the METLIN SMRT retention time set (Domingo-Almenara et al. 2019).

Assay: gradient 5% acetonitrile 3 min, to 50% in 2 min, to 85% in 15 min, held 3 min, 100 µL/min
Details: column: Zorbax Extend-C18 2.1 x 50 mm; eluents: water / acetonitrile, 0.1% formic acid
How it was run: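 In both positive and negative ionization mode, a quadrupole time-of-flight mass spectrometer coupled to HPLC analyzed pure standards run in mixtures of ~100 molecules. The Zorbax Extend-C18 column (2.1 × 50 mm, 1.8 μm) was operated at 100 μL/min with water and acetonitrile, each containing 0.1% formic acid. The dead volume was 40 μL and the dwell volume 900 μL. Retention time came from adduct peaks that were computationally picked and individually inspected by hand.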

CCOC(=O)CNC(=O)N1CCC2(CC1)NC(=O)c1ccccc1O2
RP-LC retention time: 630 s

CCN(CC)CCCNC(=O)C1CCN(C(=O)c2oc3cc4sc(N(C)C)nc4cc3c2C)CC1
RP-LC retention time: 564 s

CCn1cc(-c2ccncc2)cc1C(=O)NCc1cccc(Br)c1
RP-LC retention time: 705 s

Cc1cc(C)cc(NC(=O)Cn2c(=O)nc(N3CCCC(C)C3)c3ccccc32)c1 (stereo unspecified)
RP-LC retention time: 913 s

CCCn1c(C2CCN(C(=O)Nc3ccc(F)cc3)CC2)cc(=O)n2nccc12
RP-LC retention time: 648 s

Cc1cc(C)n(-c2ccnc(N3CCC(C(=O)NCCN4CCOCC4)CC3)n2)n1
RP-LC retention time: 607 s

COC(=O)c1cc2ccsc2n1CC(=O)Nc1ccc(F)c(Cl)c1
RP-LC retention time: 1010 s

Cc1cc(C(=O)Nc2nc3c(s2)CN(C(=O)c2snnc2C)CC3)no1
RP-LC retention time: 660 s

COCCNC(=O)C(=O)NCC1(c2ccc(F)cc2)CCOCC1
RP-LC retention time: 676 s

CN(C)S(=O)(=O)c1ccc(C(=O)N2CCC3(CC2)OCCS3)cc1
RP-LC retention time: 724 s

COc1ccc2c(CCN)c[nH]c2c1
RP-LC retention time: 565 s

O=C(Nc1nnc(C2CC(=O)N(c3ccccc3)C2)o1)c1ccc(Cl)cc1 (stereo unspecified)
RP-LC retention time: 746 s

COC(=O)c1c(C)c(C(=O)C(C)N(C(=O)c2ccccc2Cl)C2CCCCC2)c(C)n1C (stereo unspecified)
RP-LC retention time: 1160 s

O=S(=O)(Nc1cccc(-c2cn3cccnc3n2)c1)c1ccc(Br)cc1
RP-LC retention time: 769 s

COc1ccc(OCc2nc(-c3ccc(N4CCCCC4)nc3)no2)cc1
RP-LC retention time: 1010 s

C=C(C)[C@@H]1CC=C(C(=O)O)CC1
RP-LC retention time: 875 s

CCCCN(C)C(=O)Cn1c(C2CC(=O)N(C3CCCC3)C2)nc2ccccc21 (stereo unspecified)
RP-LC retention time: 680 s

CCOc1ccc(C(=O)N2C[C@@H]3C[C@H]2C[C@@H]3NS(=O)(=O)c2ccccc2)cc1
RP-LC retention time: 764 s

Cc1ccc(F)cc1S(=O)(=O)N1CCc2c(c(-c3nnc(-c4ccccc4F)o3)nn2C)C1
RP-LC retention time: 981 s

O=C(Nc1ccc(F)cc1)C1CCCN(c2nc3ccsc3c(=O)n2Cc2ccc(F)cc2)C1 (stereo unspecified)
RP-LC retention time: 996 s

COc1ccc(NC(=O)Cn2nc3nc(N4CCSCC4)ccn3c2=O)cc1OC
RP-LC retention time: 639 s

CCCC(CCC)C(=O)NCc1nnnn1-c1ccc(OCC)cc1
RP-LC retention time: 882 s

CN(CC(=O)O)c1nc2c(F)cccc2s1
RP-LC retention time: 689 s

Cn1cccc1C(=O)Nc1cnn(-c2ncc(N3CCSCC3)cn2)c1
RP-LC retention time: 768 s

CCCN1CC(Oc2ccc(-c3noc(-c4cccnc4)n3)cc2)C1
RP-LC retention time: 621 s

CCC(C)N(CC(=O)N(Cc1ccco1)CC1CCCO1)C(=O)c1ccccc1OC (stereo unspecified)
RP-LC retention time: 805 s

COc1ccc(NC(=O)Cc2csc(NC(=O)C3CC3)n2)cc1C
RP-LC retention time: 706 s

CC1=C(C(=O)NCc2ccc3c(c2)OCO3)C2(CCN(Cc3ccccc3)CC2)OC1=O
RP-LC retention time: 669 s

Cc1cc(F)ccc1NS(=O)(=O)c1cc(-c2[nH]ncc2C(=O)N(C)C)oc1C
RP-LC retention time: 697 s

CCOc1ccc(CC(=O)N2CCCn3nc(-c4cccs4)cc3C2)cc1
RP-LC retention time: 850 s

CCCNC(=O)C1CCN(c2ccc(SCC(=O)Nc3ccc(F)c(Cl)c3)nn2)CC1
RP-LC retention time: 692 s

O=C(Cc1ccccc1)Nc1cccc(C(=O)Nc2ccccc2C(=O)O)c1
RP-LC retention time: 830 s

O=C1c2ccccc2C(=O)c2c1ccc(C(=O)N1CCN(c3ccccn3)CC1)c2NCCO
RP-LC retention time: 616 s

Cc1ccccc1-c1ccc(N2CCC(C(=O)NCc3ccco3)CC2)nn1
RP-LC retention time: 605 s

CC(C)n1cc(S(=O)(=O)Nc2ccc(Cl)cc2)c2cccnc21
RP-LC retention time: 862 s

CCc1ccc(C2=Nc3cccnc3N(CC(=O)Nc3ccc4c(c3)OCCO4)C(=O)C2)cc1
RP-LC retention time: 1020 s

O=C(c1cccs1)N1[C@H]2CC[C@@H]1c1cnc(-c3ccc(F)cc3)nc1C2
RP-LC retention time: 979 s

O=C1COc2cccnc2N1
RP-LC retention time: 648 s

O=C(c1cc2ccccc2[nH]1)N1CCN(c2cc(-c3ccccc3)[nH]n2)CC1
RP-LC retention time: 792 s

CCCn1c(=O)sc2cc(S(=O)(=O)N3CCC(C(=O)Nc4ccc(CC)cc4)CC3)ccc21
RP-LC retention time: 929 s

Cc1ccc(-c2nc(C)cc(SCC(=O)Nc3cc(C)ccc3C)n2)cc1
RP-LC retention time: 1210 s

CC1CN(C(=O)CSc2cn(CC(=O)N(C(C)C)C(C)C)c3ccccc23)CC(C)O1 (stereo unspecified)
RP-LC retention time: 959 s

COc1ccc(C)cc1NC(=O)c1cc(C(C)C)n2nccc2n1
RP-LC retention time: 1270 s

CCOc1ccccc1-c1csc(NC(=O)c2sc(C)nc2C)n1
RP-LC retention time: 981 s

O=C(C1CCN(c2ncnc3c2nc2n3CCCCC2)CC1)N1CCN(c2ncccn2)CC1
RP-LC retention time: 669 s

CCc1ccccc1NS(=O)(=O)c1cc(-c2[nH]ncc2C(=O)N2CCCC2)oc1C
RP-LC retention time: 749 s

CCOc1ccc2nc(NC3=NCN(Cc4cccnc4)CN3)nc(C)c2c1
RP-LC retention time: 580 s

CN1C(=O)c2cc(C(=O)NC3CCN(Cc4ccccc4)CC3)nn2CC1(C)C(=O)NC1CCCC1 (stereo unspecified)
RP-LC retention time: 610 s

O=C(Nc1ccc2c(c1)CCC2)C1CC(=O)N(CCc2c[nH]c3ccc(Cl)cc23)C1 (stereo unspecified)
RP-LC retention time: 921 s

CC(=O)Nc1ccc(C2(C(=O)NCc3ccc(F)cc3Cl)CCC2)cc1
RP-LC retention time: 804 s

Cc1cc(C)c(NC(=O)Cn2cnc(C)c(C)c2=O)c(C)c1
RP-LC retention time: 674 s

Cc1nc(-c2ccccc2)nc2c1CC(=O)N2Cc1cccnc1
RP-LC retention time: 616 s

Cc1cccc(N2CCN(c3ccc4cc(S(=O)(=O)N5CCC(C)CC5)ccc4n3)CC2)c1C
RP-LC retention time: 1460 s

CCn1cc(C(=O)Nc2ccc(F)c(F)c2)c(S(=O)(=O)N2CCC(C)CC2)n1
RP-LC retention time: 1170 s

Cc1nn(-c2nc3ccccc3[nH]2)c2c1C(=O)CC(c1ccccc1)C2 (stereo unspecified)
RP-LC retention time: 990 s

CC(=O)Nc1ccc(-c2noc(C3CCN(C(=O)C4(c5ccccc5)CC4)CC3)n2)cc1
RP-LC retention time: 837 s

CN(C)c1ccc(NC(=O)c2c(O)c3ccccc3n(-c3ccccc3)c2=O)cc1
RP-LC retention time: 1180 s

CCN(Cc1ccccc1)c1ncc(NC(=O)c2ccccc2Cl)cc1C(=O)O
RP-LC retention time: 723 s

Cc1ccccc1OCC(=O)N1CC2CN(S(=O)(=O)c3ccc(F)cc3)CC(C1)O2
RP-LC retention time: 903 s

CCOC(=O)c1noc2nc(C)nc(N(C)c3cc(C)ccc3OC)c12
RP-LC retention time: 1040 s

CCOC(=O)c1c(C)[nH]c(CCC(=O)NCc2cccs2)c1C
RP-LC retention time: 746 s

CC1(C)CC(=O)C2=C(C1)N(CC1CCCO1)C(=O)C2(NC(=O)c1ccccc1)C(F)(F)F (stereo unspecified)
RP-LC retention time: 906 s

O=S(=O)(c1ccc2nncn2c1)N(Cc1ccccc1)c1cccc(F)c1
RP-LC retention time: 851 s

CCCn1c(=O)c(C)nc2cc(-c3noc(-c4cc(OC)cc(OC)c4)n3)ccc21
RP-LC retention time: 1090 s

COc1ccc(CNC(=O)C2CCCN(C(=O)c3[nH]c(C)c(C(=O)OC(C)C)c3C)C2)cc1 (stereo unspecified)
RP-LC retention time: 812 s

CC1CCc2c(sc3ncn4c(=O)n(CC(=O)N5CCc6ccccc6C5)nc4c23)C1 (stereo unspecified)
RP-LC retention time: 1070 s
